From ChEMBL document CHEMBL3832082, “DailyMed|setid=a9a12198-b016-42ae-b9dc-d98fead7b79e | CARVEDILOL- carvedilol tablet, film coated|REMEDYREPACK INC” come the findings set out here.

One series deals with Homo sapiens. Kind of series: (§1) Pharmacokinetic parameters for Carvedilol following oral administration of Carvedilol tablets. As to conditions: in vivo, po, dosed compound id 39, dosed compound name CARVEDILOL, tissue Plasma. It counts as ADME, organism-based.
Series [1] can be described thus: as §1. The class given is ADME, organism-based. Particulars: human, in vivo, dosed compound id 39, dosed compound name CARVEDILOL, tissue Plasma.

In the case of `COc1ccccc1OCCNCC(O)COc1cccc2[nH]c3ccccc3c12` (stereo not given) [CARVEDILOL], the t1/2(app) in the series on Homo sapiens (gender male and female) fell in the range of 7 to 11 h. The same compound came in with a Vss in the series with Homo sapiens of 115 L. In series [1] (gender male and female, read-out: t1/2(app)), the half-life was 5 to 9 h. Further, in series [1], the CL/F (usually clearance divided by bioavailability, as obtained after extravascular dosing) is 500 to 700 mL/min and the bioavailability (as a rule, dose-corrected exposure relative to a reference, in per cent) is 25 to 35%.
